Measured values as given in patent publication US20240391931A1 (Bristol-Myers Squibb Company, priority 2021, published 2024).

Legend:
Assay type in all cases: cell-based
HER2 [1] = target: T1, HER2 (Homo sapiens, UniProt P04626); assay: HER2 occupancy assay in BT474 cells; conditions: concentration at which 50% of HER2 is irreversible bound, read-out: BT474 HER2 Occ
T1 construct: BT474 and N87 cell lines which endogenously overexpress the HER2 wildtype (WT) protein; endogenous in cells; host or cells: BT474, N87
Experimental: (§1) In order to assess free HER2 protein, a biotinylated probe was utilized. BT474, N87, and Ba/F3-HER2YVMA cells were treated with test compound as described for HER2 signaling. After compound treatment, cells were washed three times with cold phosphate buffer saline (PBS, Life Technologies, Carlsbad, CA), and lysed in modified occupancy lysis buffer prepared with an irreversible biotinylated tool compound (1 μM) in 25 mM Tris pH 7.5, 150 mM NaCl, 1% Triton, and supplemented with cOmplete, EDTA-free Protease inhibitor cocktail (Roche), Phosphatase Inhibitor Cocktails 2 and 3 (Sigma-Aldrich), and 1 mM PMSF (Sigma-Aldrich).
(§2) To determine % occupancy, lysates were loaded into duplicate plates of the phospho (Tyr1248)/total ErbB2 whole cell lysate MSD kit (Meso-Scale Discovery) and incubated overnight. Plates were washed and incubation with either HER2-sulfoTag (1:50, Meso Scale Discovery) or Strep-Sulfo Tag (1:1000, Meso Scale Discovery), for detection of […]. A standard curve of untreated cells in serial dilution was included in each plate to independently fit streptavidin (Free HER2) and total HER2 MSD signals; non-specific signal (BSA control spots) was subtracted from each well. Free HER2 was then normalized by total HER2 for each sample. The results are reported as % DMSO control. The normalized data was fitted using a sigmoidal curve analysis program (Graph Pad Prism version 6) with variable Hill slope to determine EC50 values. The results are provided in Table 4, under columns titled “BT474-HER2 Occ”, “N87-HER2 Occ”, and “Ba/F3 YVMA-HER2 Occ”. HER2 Occ is the concentration of test compound at which 50% of HER2 is irreversible bound.

HER2 [2] = target: T1, HER2; assay: HER2 occupancy assay in N87 cells; conditions: concentration at which 50% of HER2 is irreversible bound, read-out: N87 HER2 Occ
Experimental: as §1, §2

HER2YVMA = HER2YVMA (Homo sapiens, UniProt P04626, INS775YVMA); assay: HER2 signaling (pHER2) in BEAS2B-HER2YVMA cells; design: expressed in transfected cells; host or cells: HEK293 (pool), Ba/F3 (clones), BEAS2B (clones); lentiviral vector pCDH-CMV-MCS-EF1-Neo; conditions: read-out: BEAS2B YVMA pHER2 EC50
Experimental: Cell culture, plasmid cloning, and lentiviral transduction were carried out according to standard procedures. The Human HER2 cDNA construct in pCMV6-Entry for the HER2 wildtype (WT) expression was obtained from Origene. The HER2 cDNA including the 12-nucleotide insertion corresponding to YVMA insertion (HER2YVMA) was codon optimized, synthesized and cloned by GenScript (Piscataway, NJ) in pcDNA3.1. The lentiviral constructs expressing HER2YVMA and HER2 WT were sub-cloned using PCR at System Biosciences (SBI, Mountainview, CA) into lentiviral vectors pCDH-CMV-MCS-EF1-Neo and lentiviral particles were generated.
Engineered lines expressing HER2YVMA and HER2 WT were prepared in HEK293 (human embryonic kidney cells), Ba/F3 (Interleukin 3 (IL3)-dependent murine pro B cell line), and BEAS2B (primary immortalized human bronchial epithelial cell line). […]
HER2 signaling was assessed in BT474 and N87 cell lines which endogenously overexpress the HER2 wildtype (WT) protein, in NCI-H1781 cells which endogenously expresses a HER2 mutant protein containing a VC insertion in the kinase domain (HER2VC or G776delinsVC), and in engineered cell lines transduced to express the Her2 mutant protein containing the YVMA insertion (Hek293-HER2YVMA and BEAS2B-HER2YVMA). […]
HER2 signaling was evaluated using phospho (Tyr1248)/total ErbB2 whole cell lysate MSD plates (Meso-Scale Discovery, Gaithersburg, MD). […]

T1 sequence (P04626 23-1255): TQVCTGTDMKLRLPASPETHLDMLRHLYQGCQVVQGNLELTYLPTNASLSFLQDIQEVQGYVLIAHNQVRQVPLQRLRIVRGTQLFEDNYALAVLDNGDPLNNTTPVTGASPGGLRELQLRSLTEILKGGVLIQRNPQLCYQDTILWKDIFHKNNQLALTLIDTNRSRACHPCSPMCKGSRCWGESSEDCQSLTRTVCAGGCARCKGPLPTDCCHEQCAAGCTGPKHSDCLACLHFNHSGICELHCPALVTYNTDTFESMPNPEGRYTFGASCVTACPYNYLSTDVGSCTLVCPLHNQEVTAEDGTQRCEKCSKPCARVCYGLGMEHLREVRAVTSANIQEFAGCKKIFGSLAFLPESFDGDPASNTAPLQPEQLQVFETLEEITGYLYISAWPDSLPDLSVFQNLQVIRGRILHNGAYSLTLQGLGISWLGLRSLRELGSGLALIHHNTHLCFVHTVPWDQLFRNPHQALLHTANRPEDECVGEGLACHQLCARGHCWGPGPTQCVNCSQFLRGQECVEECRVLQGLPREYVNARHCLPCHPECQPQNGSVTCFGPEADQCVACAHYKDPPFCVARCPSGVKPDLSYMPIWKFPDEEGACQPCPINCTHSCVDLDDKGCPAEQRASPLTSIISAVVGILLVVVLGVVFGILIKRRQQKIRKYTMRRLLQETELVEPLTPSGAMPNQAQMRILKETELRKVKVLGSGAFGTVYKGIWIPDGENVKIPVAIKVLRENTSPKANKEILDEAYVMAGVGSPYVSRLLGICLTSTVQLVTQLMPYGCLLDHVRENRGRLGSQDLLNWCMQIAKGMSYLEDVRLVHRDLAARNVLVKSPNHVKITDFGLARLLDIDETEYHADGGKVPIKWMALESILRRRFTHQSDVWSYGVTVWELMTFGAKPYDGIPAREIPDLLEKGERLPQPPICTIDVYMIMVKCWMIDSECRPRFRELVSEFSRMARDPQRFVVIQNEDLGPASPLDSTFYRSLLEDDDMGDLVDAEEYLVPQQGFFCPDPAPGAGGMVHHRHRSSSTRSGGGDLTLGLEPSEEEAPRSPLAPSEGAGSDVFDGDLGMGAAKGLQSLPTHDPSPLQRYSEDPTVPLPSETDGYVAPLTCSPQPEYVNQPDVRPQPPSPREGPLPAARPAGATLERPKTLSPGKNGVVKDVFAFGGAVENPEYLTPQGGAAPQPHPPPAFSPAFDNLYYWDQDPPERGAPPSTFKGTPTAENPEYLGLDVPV
HER2YVMA, sequence (P04626 with tags, fused parts or gaps INS775YVMA): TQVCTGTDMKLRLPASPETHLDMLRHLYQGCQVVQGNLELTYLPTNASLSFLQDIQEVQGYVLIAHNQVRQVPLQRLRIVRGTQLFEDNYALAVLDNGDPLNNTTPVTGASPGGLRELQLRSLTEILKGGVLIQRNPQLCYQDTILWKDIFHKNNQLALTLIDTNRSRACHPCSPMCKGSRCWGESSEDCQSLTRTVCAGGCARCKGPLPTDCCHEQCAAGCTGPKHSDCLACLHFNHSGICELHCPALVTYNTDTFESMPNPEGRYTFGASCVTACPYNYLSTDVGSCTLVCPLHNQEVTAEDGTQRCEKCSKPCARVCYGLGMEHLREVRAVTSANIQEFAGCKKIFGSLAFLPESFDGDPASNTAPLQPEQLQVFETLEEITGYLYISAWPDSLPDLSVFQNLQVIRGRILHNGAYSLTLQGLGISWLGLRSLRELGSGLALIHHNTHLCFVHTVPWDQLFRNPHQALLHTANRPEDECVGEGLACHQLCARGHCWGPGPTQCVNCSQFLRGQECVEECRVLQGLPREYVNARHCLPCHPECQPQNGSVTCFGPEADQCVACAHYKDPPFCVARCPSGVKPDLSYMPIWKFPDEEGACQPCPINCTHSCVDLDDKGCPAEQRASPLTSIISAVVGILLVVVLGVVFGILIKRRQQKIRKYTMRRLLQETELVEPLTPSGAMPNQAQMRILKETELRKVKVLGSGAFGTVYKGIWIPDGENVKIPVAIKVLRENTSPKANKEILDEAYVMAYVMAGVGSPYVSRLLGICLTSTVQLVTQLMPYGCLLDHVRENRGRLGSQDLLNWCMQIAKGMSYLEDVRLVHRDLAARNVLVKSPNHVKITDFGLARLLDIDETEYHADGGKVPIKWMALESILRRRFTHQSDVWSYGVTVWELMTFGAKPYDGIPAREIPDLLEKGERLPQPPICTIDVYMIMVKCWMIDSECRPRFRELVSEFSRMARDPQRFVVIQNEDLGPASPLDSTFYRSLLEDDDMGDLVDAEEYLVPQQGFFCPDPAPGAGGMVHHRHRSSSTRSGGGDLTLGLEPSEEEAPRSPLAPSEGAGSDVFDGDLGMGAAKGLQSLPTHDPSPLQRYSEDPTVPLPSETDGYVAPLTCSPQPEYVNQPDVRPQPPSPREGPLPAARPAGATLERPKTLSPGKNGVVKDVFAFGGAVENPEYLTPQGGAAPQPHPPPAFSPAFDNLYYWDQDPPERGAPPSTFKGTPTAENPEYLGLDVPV

Row | Structure (SMILES) | EC50 (HER2 [1]) | EC50 (HER2 [2]) | EC50 (HER2YVMA)
1 | CN(C)C/C=C/C(=O)N1CCc2c(sc3ncnc(Nc4ccc(Oc5ccc6ncnn6c5)c(Cl)c4)c23)C1 [Compound 5, (E)-1-(4-((4-([1,2,4]triazolo[1,5-a]pyridin-6-yloxy)-3-chlorophenyl)amino)-5,8-dihydropyrido[4′,3′:4,5]thieno[2,3-d]pyrimidin-7(6H)-yl)-4-(dimethylamino)but-2-en-1-one] | < 100 nM | < 100 nM | –
2 | COc1ccc(Oc2ccc(Nc3ncnc4sc5c(c34)CCN(C(=O)/C=C/CN(C)C)C5)cc2C)cn1 [Compound 95, (E)-4-(Dimethylamino)-1-(4-((4-((6-methoxypyridin-3-yl)oxy)-3-methylphenyl)amino)-5,6-dihydropyrido[4′,3′:4,5]thieno[2,3-d]pyrimidin-7(8H)-yl)but-2-en-1-one] | – | < 100 nM | < 100 nM
